This passage reports IC50 results from US20260250290A1 (BRISTOL-MYERS SQUIBB COMPANY, priority 2023, published 2026).

Structures can show the parent of a compound that is named as a salt.

As a reminder, the IC50 is the concentration that inhibits the measured activity by half.

The test has as its target T1, full length SGK1 (Homo sapiens, UniProt O00141).
T1 construct: 125 μM full length SGK1 (Life Technologies Part #PR7358A); purchased Life Technologies PR7358A
T1 sequence (O00141 1-431): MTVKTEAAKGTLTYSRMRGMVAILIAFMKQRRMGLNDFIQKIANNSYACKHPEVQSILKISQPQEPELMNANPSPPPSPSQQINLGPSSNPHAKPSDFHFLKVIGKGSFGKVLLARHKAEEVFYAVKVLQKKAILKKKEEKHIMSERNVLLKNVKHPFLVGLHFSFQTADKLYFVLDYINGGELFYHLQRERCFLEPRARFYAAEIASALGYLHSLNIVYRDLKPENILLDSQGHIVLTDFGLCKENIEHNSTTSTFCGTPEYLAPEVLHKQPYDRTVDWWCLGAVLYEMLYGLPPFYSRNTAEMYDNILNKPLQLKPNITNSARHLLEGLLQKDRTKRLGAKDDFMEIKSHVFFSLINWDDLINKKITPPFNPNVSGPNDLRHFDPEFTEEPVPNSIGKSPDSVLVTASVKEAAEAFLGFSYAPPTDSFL
As to the kind of experiment: SGK1 inhibition Assay A (Caliper LabChip electrophoretic separation of fluorescent peptide substrate and phosphorylated product). The class given is biochemical. The following applies: Assay A; 20 μM ATP, 40 min incubation; read-out: SGK1 IC50.
For the compound `COC(=O)N1CC=C(c2cc(N3CCC[C@@H](NC(=O)c4sc(C(F)F)cc4OC4CCN(C(C)C)CC4)C3)c3c(N)ncnn23)C1` [Example 441, Methyl (R)-3-(4-amino-5-(3-(5-(difluoromethyl)-3-((1-isopropylpiperidin-4-yl)oxy)thiophene-2-carboxamido)piperidin-1-yl)pyrrolo[2,1-f][1,2,4]triazin-7-yl)-2,5-dihydro-1H-pyrrole-1-carboxylate], the IC50 turned out to be 10 nM.

As to `Cc1cc(-c2cc(N3CCC[C@@H](NC(=O)c4sc(Cl)cc4OCC(=O)N4CCCC4)C3)c3c(N)ncnn23)cnc1C#N` [Example 421, (R)-N-(1-(4-amino-7-(6-cyano-5-methylpyridin-3-yl)pyrrolo[2,1-f][1,2,4]triazin-5-yl)piperidin-3-yl)-5-chloro-3-(2-oxo-2-(pyrrolidin-1-yl)ethoxy) thiophene-2-carboxamide], the IC50 turned out to be 11 nM.

Consider `CN(C)CCOc1cc(Cl)sc1C(=O)N[C@@H]1CCCN(c2cc(-c3ccc(C#N)c(F)c3)n3ncnc(N)c23)C1` [Example 279, (R)-N-(1-(4-amino-7-(4-cyano-3-fluorophenyl)pyrrolo[2,1-f][1,2,4]triazin-5-yl)piperidin-3-yl)-5-chloro-3-(2-(dimethylamino)ethoxy) thiophene-2-carboxamide], for which the IC50 came to 3 nM.

For `CC(=O)N(C)CCOc1cc(Cl)sc1C(=O)N[C@@H]1CCCN(c2cc(C3=CCN(C(C)=O)C3)n3ncnc(N)c23)C1` [Example 332, (R)—N-(1-(7-(1-acetyl-2,5-dihydro-1H-pyrrol-3-yl)-4-aminopyrrolo[2,1-f][1,2,4]triazin-5-yl)piperidin-3-yl)-5-chloro-3-(2-(N-methylacetamido)ethoxy)thiophene-2-carboxamide], the IC50 amounted to 18 nM.

For the compound `CC(=O)N1CC=C(c2cc(N3CCC[C@@H](NC(=O)c4cccc(OCC5CN(C)C5)n4)C3)c3c(N)ncnn23)C1` [Example 733, (R)-N-(1-(7-(1-acetyl-2,5-dihydro-1H-pyrrol-3-yl)-4-aminopyrrolo[2,1-f][1,2,4]triazin-5-yl)piperidin-3-yl)-6-((1-methylazetidin-3-yl)methoxy)picolinamide], the IC50 came to 23 nM.

With `Nc1ncnn2c(-c3cc(F)nc(F)c3)cc(N3CCC[C@@H](NC(=O)c4ccc(Cl)s4)C3)c12` [Example 231], the IC50 worked out at 12 nM.

For `COC(=O)N1CC=C(c2cc(N3CCC[C@@H](NC(=O)c4sc(Cl)cc4OCCN4CCCC4)C3)c3c(N)ncnn23)C1` [Example 292, Methyl (R)-3-(4-amino-5-(3-(5-chloro-3-(2-(pyrrolidin-1-yl)ethoxy)thiophene-2-carboxamido)piperidin-1-yl)pyrrolo[2,1-f] [1,2,4]triazin-7-yl)-2,5-dihydro-1H-pyrrole-1-carboxylate], the IC50 was 10 nM.

As for `COC(=O)N1CC=C(c2cc(N3CCC[C@@H](NC(=O)c4sc(Cl)cc4OC4COC4)C3)c3c(N)ncnn23)C1` [Example 567, Methyl (R)-3-(4-amino-5-(3-(5-chloro-3-(oxetan-3-yloxy)thiophene-2-carboxamido)piperidin-1-yl)pyrrolo[2,1-f][1,2,4]triazin-7-yl)-2,5-dihydro-1H-pyrrole-1-carboxylate], the IC50 was determined as 4 nM.

For `CC(=O)N1CC=C(c2cc(N3CCCC(NC(=O)c4sc(Cl)cc4OC4CCNC(C)C4)C3)c3c(N)ncnn23)C1` (single isomer, unassigned) [Example 623], the IC50 came out at 4 nM.

Consider `CS(=O)(=O)c1ccc(-c2cc(N3CCC[C@@H](NC(=O)c4ccc(Br)s4)C3)c3c(N)ncnn23)cc1` [Example 95, (R)-N-(1-(4-amino-7-(4-(methylsulfonyl)phenyl)pyrrolo[2,1-f][1,2,4]triazin-5-yl)piperidin-3-yl)-5-bromothiophene-2-carboxamide, TFA], for which the IC50 stood at 6 nM.

For the compound `CS(=O)(=O)c1ccc(-c2cc(N3CCC[C@@H](C(=O)NCc4ccccc4)C3)c3c(N)ncnn23)cc1` [Example 106, (R)-1-(4-amino-7-(4-(methylsulfonyl)phenyl)pyrrolo [2,1-f][1,2,4]triazin-5-yl)-N-benzylpiperidine-3-carboxamide], the IC50 was 823 nM.

Take `Cc1nn(C)cc1-c1cc(N2CCC[C@@H](NC(=O)c3ccc(Cl)s3)C2)c2c(N)ncnn12` [Example 217, (R)-N-(1-(4-amino-7-(1,3-dimethyl-1H-pyrazol-4-yl)pyrrolo[2,1-f][1,2,4]triazin-5-yl)piperidin-3-yl)-5-chlorothiophene-2-carboxamide]: the IC50 came to 62 nM.

As to `COC(=O)N1CC=C(c2cc(N3CCC[C@@H](NC(=O)c4cc5cc(F)ccc5[nH]4)C3)c3c(N)ncnn23)C1` [Example 518, Methyl (R)-3-(4-amino-5-(3-(5-fluoro-1H-indole-2-carboxamido)piperidin-1-yl)pyrrolo[2,1-f][1,2,4]triazin-7-yl)-2,5-dihydro-1H-pyrrole-1-carboxylate], the IC50 came to 138 nM.

Turning to `Nc1ncnn2c(-c3ccc(=O)n(CC(F)F)c3)cc(N3CCC[C@@H](NC(=O)c4sc(Cl)cc4OC4CN(CC(F)F)C4)C3)c12` [Example 387, (R)-N-(1-(4-amino-7-(1-(2,2-difluoroethyl)-6-oxo-1,6-dihydropyridin-3-yl)pyrrolo[2,1-f][1,2,4]triazin-5-yl)piperidin-3-yl)-5-chloro-3-((1-(2,2-difluoroethyl)azetidin-3-yl)oxy)thiophene-2-carboxamide], the IC50 turned out to be 29 nM.

For the compound `CC(=O)N1CC=C(c2cc(N3CCC[C@@H](NC(=O)c4sc(C)nc4OC4CCN(C(C)C)CC4)C3)c3c(N)ncnn23)C1` [Example 358, (R)-N-(1-(7-(1-acetyl-2,5-dihydro-1H-pyrrol-3-yl)-4-aminopyrrolo[2,1-f][1,2,4]triazin-5-yl)piperidin-3-yl)-4-((1-isopropylpiperidin-4-yl)oxy)-2-methylthiazole-5-carboxamide], the IC50 amounted to 29 nM.

As to `CN1CCC(Oc2cc(C3CC3)sc2C(=O)N[C@@H]2CCCN(c3cc(-c4ccc(C#N)nc4)n4ncnc(N)c34)C2)CC1` [Example 381, (R)-N-(1-(4-amino-7-(6-cyanopyridin-3-yl)pyrrolo[2,1-f][1,2,4]triazin-5-yl)piperidin-3-yl)-5-cyclopropyl-3-((1-methylpiperidin-4-yl)oxy)thiophene-2-carboxamide], the IC50 came out at 6 nM.

As to `Nc1ncnn2c(-c3ccc4c(c3)C(=O)NC4)cc(N3CCC[C@@H](NC(=O)c4ccc(Cl)s4)C3)c12` [Example 219, (R)-N-(1-(4-amino-7-(3-oxoisoindolin-5-yl)pyrrolo[2,1-f][1,2,4]triazin-5-yl)piperidin-3-yl)-5-chlorothiophene-2-carboxamide], the 50% inhibitory concentration (IC50) is 68 nM.

With `CC(=O)N1CC=C(c2cc(N3CCC[C@@H](NC(=O)c4cccc(NCCN5CCCC5)n4)C3)c3c(N)ncnn23)C1` [Example 763, (R)-N-(1-(7-(1-acetyl-2,5-dihydro-1H-pyrrol-3-yl)-4-aminopyrrolo[2,1-f][1,2,4]triazin-5-yl)piperidin-3-yl)-6-((2-(pyrrolidin-1-yl)ethyl)amino)picolinamide], the IC50 was 10 nM.

In the case of `CS(=O)(=O)c1ccc(-c2cc(N3CCC[C@@H](NC(=O)c4cccs4)C3)c3c(N)ncnn23)cc1` [Example 88, (R)-N-(1-(4-amino-7-(4-(methylsulfonyl)phenyl)pyrrolo[2,1-f][1,2,4]triazin-5-yl)piperidin-3-yl)thiophene-2-carboxamide, TFA], the IC50 was 8 nM.

Turning to `CC(=O)N1CC=C(c2cc(N3CCC[C@@H](NC(=O)c4cccc(NCC5CN(C)C5)n4)C3)c3c(N)ncnn23)C1` [Example 780, (R)-N-(1-(7-(1-acetyl-2,5-dihydro-1H-pyrrol-3-yl)-4-aminopyrrolo[2,1-f][1,2,4]triazin-5-yl)piperidin-3-yl)-6-(((1-methylazetidin-3-yl)methyl)amino)picolinamide], the IC50 came out at 25 nM.

For the compound `CC(=O)N1CC=C(c2cc(N3CCC[C@@H](NC(=O)c4sc(Cl)cc4OC4CCN(C5CC5)CC4)C3)c3c(N)ncnn23)C1` [Example 615, (R)—N-(1-(7-(1-acetyl-2,5-dihydro-1H-pyrrol-3-yl)-4-aminopyrrolo[2,1-f][1,2,4]triazin-5-yl)piperidin-3-yl)-5-chloro-3-((1-cyclopropylpiperidin-4-yl)oxy)thiophene-2-carboxamide], the IC50 turned out to be 50 nM.

Regarding `COc1cnccc1C(=O)N[C@@H]1CCCN(c2cc(C3=CCN(C(C)=O)C3)n3ncnc(N)c23)C1` [Example 258, (R)—N-(1-(7-(1-acetyl-2,5-dihydro-1H-pyrrol-3-yl)-4-aminopyrrolo[2,1-f][1,2,4]triazin-5-yl)piperidin-3-yl)-3-methoxyisonicotinamide], the half-inhibitory concentration (IC50) worked out at 67 nM.

As for `CC(=O)N1CC=C(c2cc(N3CCC[C@@H](NC(=O)c4cccc(N5C[C@@H](C)N[C@@H](C)C5)n4)C3)c3c(N)ncnn23)C1` [Example 774, N-((R)-1-(7-(1-acetyl-2,5-dihydro-1H-pyrrol-3-yl)-4-aminopyrrolo[2,1-f][1,2,4]triazin-5-yl)piperidin-3-yl)-6-((3S,5R)-3,5-dimethylpiperazin-1-yl)picolinamide], the IC50 was 1 nM.

As for `Cc1cc(CO)c(C(=O)N[C@@H]2CCCN(c3cc(-c4ccnc(F)c4)n4ncnc(N)c34)C2)s1` [Example 202, (R)—N-(1-(4-amino-7-(2-fluoropyridin-4-yl)pyrrolo[2,1-f][1,2,4]triazin-5-yl)piperidin-3-yl)-3-(hydroxymethyl)-5-methylthiophene-2-carboxamide], the IC50 amounted to 12 nM.
